Experimental data: US20260297080A1, “BICYCLIC COMPOUNDS AS CDK INHIBITORS” (BeOne Medicines I GmbH, priority 2022, published 2026)

How the values were obtained:
CDK2/Cyclin E1 = CDK2/Cyclin E1 (Homo sapiens, UniProt P24941); experiment: CDK2/Cyclin E1 Biochemical Assay (TR-FRET), 0.060 mM ATP; conditions: 0.15 μM Rb (Ser780)-biotin substrate, pH7.0, 60 min preincubation, 120 min reaction, room temperature
Outline: (§1)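 IC50 was from a four-parameter logistic fit of the 665/620 nm TR-FRET ratio (Eu anti-pRb Ser780 mAb, streptavidin-XL665). Compound (0-10 μM) was preincubated 60 min with enzyme, then reacted 120 min at room temperature with 0.15 μM biotinylated Rb (Ser780) peptide. ATP was 0.015 mM for CDK1/Cyclin B1 and 0.060 mM for CDK2/Cyclin E1; buffer was HEPES pH7.0.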

CDK1/Cyclin B1 = CDK1/Cyclin B1 (Homo sapiens, UniProt P06493); experiment: CDK1/Cyclin B1 Biochemical Assay (TR-FRET), 0.015 mM ATP; conditions: 0.15 μM Rb (Ser780)-biotin substrate, pH7.0, 60 min preincubation, 120 min reaction, room temperature
Outline: as §1

Sequence of CDK1/Cyclin B1 (P06493 whole entry): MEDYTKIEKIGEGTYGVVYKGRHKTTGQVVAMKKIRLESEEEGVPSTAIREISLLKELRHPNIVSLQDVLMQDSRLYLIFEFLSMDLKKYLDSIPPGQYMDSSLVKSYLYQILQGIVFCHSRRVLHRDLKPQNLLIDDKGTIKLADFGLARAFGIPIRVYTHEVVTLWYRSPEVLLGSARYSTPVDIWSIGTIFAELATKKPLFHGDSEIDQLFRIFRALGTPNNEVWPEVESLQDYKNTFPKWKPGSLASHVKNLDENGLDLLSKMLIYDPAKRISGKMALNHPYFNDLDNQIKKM
Sequence of CDK1/Cyclin B1 (P14635 whole entry partner): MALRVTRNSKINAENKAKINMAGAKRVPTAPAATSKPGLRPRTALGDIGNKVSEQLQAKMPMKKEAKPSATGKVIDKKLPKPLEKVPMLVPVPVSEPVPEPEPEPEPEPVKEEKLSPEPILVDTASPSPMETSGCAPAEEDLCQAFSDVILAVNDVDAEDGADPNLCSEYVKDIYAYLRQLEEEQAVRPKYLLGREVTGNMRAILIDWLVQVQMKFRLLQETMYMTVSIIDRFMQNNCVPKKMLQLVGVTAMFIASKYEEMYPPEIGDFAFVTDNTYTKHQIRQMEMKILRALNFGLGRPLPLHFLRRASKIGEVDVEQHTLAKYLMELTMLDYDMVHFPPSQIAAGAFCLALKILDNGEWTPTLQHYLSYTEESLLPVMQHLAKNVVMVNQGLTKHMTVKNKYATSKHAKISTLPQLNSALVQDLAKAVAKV

CN1c2ccc(Nc3cc([C@@H]4CC[C@H](OC(=O)NC5(C)CCOC5)C4)[nH]n3)c(F)c2CS1(=O)=O (single isomer, unassigned) [Example 349c, cis-3-(3-((4-fluoro-1-methyl-2,2-dioxido-1,3-dihydrobenzo[c]isothiazol-5-yl)amino)-1H-pyrazol-5-yl)cyclopentyl(3-methyltetrahydrofuran-3-yl)carbamate]
IC50 (CDK2/Cyclin E1): 0.0019 µM | IC50 (CDK1/Cyclin B1): 0.078 µM

CCCNC(=O)O[C@H]1CC[C@@H](c2cc(Nc3ccc4c(c3)NS(=O)(=O)C4)n[nH]2)C1 (relative stereo) [Example 305, cis-3-(3-((2,2-dioxido-1,3-dihydrobenzo[c]isothiazol-6-yl)amino)-1H-pyrazol-5-yl)cyclopentyl propylcarbamate]
IC50 (CDK2/Cyclin E1): 0.0065 µM | IC50 (CDK1/Cyclin B1): 0.058 µM

CCCNC(=O)O[C@H]1CC[C@@H](c2cc(Nc3ccc4c(c3F)CS(=O)(=O)N4C3COC3)n[nH]2)C1 (single isomer, unassigned) [Example 260a, cis-3-(3-((4-fluoro-1-(oxetan-3-yl)-2,2-dioxido-1,3-dihydrobenzo[c]isothiazol-5-yl)amino)-1H-pyrazol-5-yl)cyclopentyl propylcarbamate]
IC50 (CDK2/Cyclin E1): 0.0059 µM | IC50 (CDK1/Cyclin B1): 0.27 µM

CC1(NC(=O)O[C@H]2CC[C@@H](c3cc(Nc4ccc5c(c4F)CS(=O)(=O)N5)n[nH]3)C2)CCOC1 (relative stereo) [Example 375, cis-3-(3-((4-fluoro-2,2-dioxido-1,3-dihydrobenzo[c]isothiazol-5-yl)amino)-1H-pyrazol-5-yl)cyclopentyl(3-methyltetrahydrofuran-3-yl)carbamate]
IC50 (CDK2/Cyclin E1): 0.0046 µM | IC50 (CDK1/Cyclin B1): 0.095 µM

CC(C)NC(=O)O[C@H]1CC[C@@H](c2cc(Nc3ccc4c(c3F)CN(CC3CCCCC3)S4(=O)=O)n[nH]2)C1 (relative stereo) [Example 108, cis-3-(3-((2-(cyclohexylmethyl)-4-fluoro-1,1-dioxido-2,3-dihydrobenzo[d]isothiazol-5-yl)amino)-1H-pyrazol-5-yl)cyclopentyl isopropylcarbamate]
IC50 (CDK2/Cyclin E1): 0.037 µM | IC50 (CDK1/Cyclin B1): > 10 µM

CC1(NC(=O)O[C@H]2CC[C@@H](c3cc(Nc4ccc5c(c4F)CNS5(=O)=O)n[nH]3)C2)CCOC1 (single isomer, unassigned) [Example 162a, cis-3-(3-((4-fluoro-1,1-dioxido-2,3-dihydrobenzo[d]isothiazol-5-yl)amino)-1H-pyrazol-5-yl)cyclopentyl(3-methyltetrahydrofuran-3-yl)carbamate]
IC50 (CDK2/Cyclin E1): 0.0034 µM | IC50 (CDK1/Cyclin B1): 0.456 µM

CC[C@H](C)NC(=O)O[C@H]1CC[C@@H](c2cc(Nc3ccc4c(c3F)S(=O)(=O)NC4)n[nH]2)C1 (relative stereo) [Example 188, cis-3-(3-((7-fluoro-1,1-dioxido-2,3-dihydrobenzo[d]isothiazol-6-yl)amino)-1H-pyrazol-5-yl)cyclopentyl((S)-sec-butyl)carbamate]
IC50 (CDK2/Cyclin E1): 0.0008 µM | IC50 (CDK1/Cyclin B1): 0.029 µM

Cc1c(Nc2cc([C@@H]3CC[C@H](OC(=O)NC(C)C)C3)[nH]n2)ccc2c1S(=O)(=O)NC2 (relative stereo) [Example 353, cis-3-(3-((7-methyl-1,1-dioxido-2,3-dihydrobenzo[d]isothiazol-6-yl)amino)-1H-pyrazol-5-yl)cyclopentyl isopropylcarbamate]
IC50 (CDK2/Cyclin E1): 0.0024 µM | IC50 (CDK1/Cyclin B1): 0.093 µM

CCCNC(=O)O[C@H]1CC[C@@H](c2cc(Nc3ccc4c(c3F)CN(C3CC3)S4(=O)=O)n[nH]2)C1 (racemic) [Example 118, cis-3-(3-((2-cyclopropyl-4-fluoro-1,1-dioxido-2,3-dihydrobenzo[d]isothiazol-5-yl)amino)-1H-pyrazol-5-yl)cyclopentyl propylcarbamate]
IC50 (CDK2/Cyclin E1): 0.0031 µM | IC50 (CDK1/Cyclin B1): 0.345 µM

CC(CC(F)(F)F)NC(=O)O[C@H]1CC[C@@H](c2cc(Nc3ccc4c(c3F)CNS4(=O)=O)n[nH]2)C1 (relative stereo) [Example 165, cis-3-(3-((4-fluoro-1,1-dioxido-2,3-dihydrobenzo[d]isothiazol-5-yl)amino)-1H-pyrazol-5-yl)cyclopentyl(4,4,4-trifluorobutan-2-yl)carbamate]
IC50 (CDK2/Cyclin E1): 0.0013 µM | IC50 (CDK1/Cyclin B1): 0.049 µM

CC(C)NC(=O)O[C@H]1CC[C@@H](c2cc(Nc3cc4c(cc3C(F)(F)F)S(=O)(=O)NC4(C)C)n[nH]2)C1 (relative stereo) [Example 21, cis-3-(3-((3,3-dimethyl-1,1-dioxido-6-(trifluoromethyl)-2,3-dihydrobenzo[d]isothiazol-5-yl)amino)-1H-pyrazol-5-yl)cyclopentyl isopropylcarbamate]
IC50 (CDK2/Cyclin E1): > 10 µM | IC50 (CDK1/Cyclin B1): > 10 µM

[2H]C([2H])([2H])N1Cc2c(ccc(Nc3cc([C@@H]4CC[C@H](OC(=O)NCCC)C4)[nH]n3)c2F)S1(=O)=O (relative stereo) [Example 130, cis-3-(3-((4-fluoro-2-(methyl-d3)-1,1-dioxido-2,3-dihydrobenzo[d]isothiazol-5-yl)amino)-1H-pyrazol-5-yl)cyclopentyl propylcarbamate]
IC50 (CDK2/Cyclin E1): 0.0057 µM | IC50 (CDK1/Cyclin B1): 0.241 µM

COc1c(Nc2cc([C@@H]3CC[C@H](OC(=O)NC(C)C)C3)[nH]n2)ccc2c1C(C)(C)NS2(=O)=O (relative stereo) [Example 24, cis-3-(3-((4-methoxy-3,3-dimethyl-1,1-dioxido-2,3-dihydrobenzo[d]isothiazol-5-yl)amino)-1H-pyrazol-5-yl)cyclopentyl isopropylcarbamate]
IC50 (CDK2/Cyclin E1): 0.887 µM | IC50 (CDK1/Cyclin B1): 9.96 µM

CNC(=O)O[C@H]1CC[C@@H](c2cc(Nc3ccc4c(c3F)CNS4(=O)=O)n[nH]2)C1 (relative stereo) [Example 153, cis-3-(3-((4-fluoro-1,1-dioxido-2,3-dihydrobenzo[d]isothiazol-5-yl)amino)-1H-pyrazol-5-yl)cyclopentyl methylcarbamate]
IC50 (CDK2/Cyclin E1): 0.091 µM | IC50 (CDK1/Cyclin B1): 1.12 µM

COc1c(Nc2cc([C@@H]3CC[C@H](OC(=O)NC(C)C)C3)[nH]n2)ccc2c1S(=O)(=O)NC2 (relative stereo) [Example 180, cis-3-(3-((7-methoxy-1,1-dioxido-2,3-dihydrobenzo[d]isothiazol-6-yl)amino)-1H-pyrazol-5-yl)cyclopentyl isopropylcarbamate]
IC50 (CDK2/Cyclin E1): 0.0029 µM | IC50 (CDK1/Cyclin B1): 0.102 µM

CC1(NC(=O)O[C@H]2CC[C@@H](c3cc(Nc4ccc5c(c4F)CS(=O)(=O)N5)n[nH]3)C2)CCOCC1 (relative stereo) [Example 402, cis-3-(3-((4-fluoro-2,2-dioxido-1,3-dihydrobenzo[c]isothiazol-5-yl)amino)-1H-pyrazol-5-yl)cyclopentyl(4-methyltetrahydro-2H-pyran-4-yl)carbamate]
IC50 (CDK2/Cyclin E1): 0.0051 µM | IC50 (CDK1/Cyclin B1): 0.101 µM

CC(C)NC(=O)O[C@H]1CC[C@@H](c2cc(Nc3ccc4c(c3F)CN(C3CCN(Cc5ccccc5)CC3)S4(=O)=O)n[nH]2)C1 (relative stereo) [Example 63, cis-3-(3-((2-(1-benzylpiperidin-4-yl)-4-fluoro-1,1-dioxido-2,3-dihydrobenzo[d]isothiazol-5-yl)amino)-1H-pyrazol-5-yl)cyclopentyl isopropylcarbamate]
IC50 (CDK2/Cyclin E1): 0.023 µM | IC50 (CDK1/Cyclin B1): 1.11 µM

CC[C@H](C)NC(=O)O[C@H]1CC[C@@H](c2cc(Nc3ccc4c(c3F)CS(=O)(=O)N4C3COC3)n[nH]2)C1 (single isomer, unassigned) [Example 261b]
IC50 (CDK2/Cyclin E1): 0.0007 µM | IC50 (CDK1/Cyclin B1): 0.023 µM

O=C(NC1CC2(CCC2)C1)O[C@H]1CC[C@@H](c2cc(Nc3ccc4c(c3F)CNS4(=O)=O)n[nH]2)C1 (relative stereo) [Example 151, cis-3-(3-((4-fluoro-1,1-dioxido-2,3-dihydrobenzo[d]isothiazol-5-yl)amino)-1H-pyrazol-5-yl)cyclopentyl spiro[3.3]heptan-2-ylcarbamate]
IC50 (CDK2/Cyclin E1): 0.08 µM | IC50 (CDK1/Cyclin B1): 0.668 µM

CC(C)NC(=O)O[C@H]1CC[C@@H](c2cc(Nc3ccc4c(n3)CNS4(=O)=O)n[nH]2)C1 (relative stereo) [Example 33, cis-3-(3-((1,1-dioxido-2,3-dihydroisothiazolo[4,5-b]pyridin-5-yl)amino)-1H-pyrazol-5-yl)cyclopentyl isopropylcarbamate]
IC50 (CDK2/Cyclin E1): 0.0018 µM | IC50 (CDK1/Cyclin B1): 0.038 µM

CC1NS(=O)(=O)c2ccc(Nc3cc([C@@H]4CC[C@H](OC(=O)NC5(C)CC5)C4)[nH]n3)c(F)c21 (single isomer, unassigned) [Example 52d, cis-3-(3-((4-fluoro-3-methyl-1,1-dioxido-2,3-dihydrobenzo[d]isothiazol-5-yl)amino)-1H-pyrazol-5-yl)cyclopentyl(1-methylcyclopropyl)carbamate]
IC50 (CDK2/Cyclin E1): 0.001 µM | IC50 (CDK1/Cyclin B1): 0.056 µM

[2H]C([2H])([2H])N1c2c(F)cc(Nc3cc([C@@H]4CC[C@H](OC(=O)NC(C)C)C4)[nH]n3)cc2CS1(=O)=O (single isomer, unassigned) [Example 289b, cis-3-(3-((7-fluoro-1-(methyl-d3)-2,2-dioxido-1,3-dihydrobenzo[c]isothiazol-5-yl)amino)-1H-pyrazol-5-yl)cyclopentyl isopropylcarbamate]
IC50 (CDK2/Cyclin E1): 0.012 µM | IC50 (CDK1/Cyclin B1): 0.116 µM

CC(C)NC(=O)O[C@H]1CC[C@@H](c2cc(Nc3ccc4c(c3F)CN(C3CCC(=O)N(C)C3)S4(=O)=O)n[nH]2)C1 (relative stereo) [Example 83, cis-3-(3-((4-fluoro-2-(1-methyl-6-oxopiperidin-3-yl)-1,1-dioxido-2,3-dihydrobenzo[d]isothiazol-5-yl)amino)-1H-pyrazol-5-yl)cyclopentyl isopropylcarbamate]
IC50 (CDK2/Cyclin E1): 0.015 µM | IC50 (CDK1/Cyclin B1): 0.565 µM

CC(C)NC(=O)O[C@H]1CC[C@@H](c2cc(Nc3cc(F)c4c(c3)CS(=O)(=O)N4C3COC3)n[nH]2)C1 (relative stereo) [Example 283, cis-3-(3-((7-fluoro-1-(oxetan-3-yl)-2,2-dioxido-1,3-dihydrobenzo[c]isothiazol-5-yl)amino)-1H-pyrazol-5-yl)cyclopentyl isopropylcarbamate]
IC50 (CDK2/Cyclin E1): 0.003 µM | IC50 (CDK1/Cyclin B1): 0.056 µM
